Laboratory results published in paper PMC9848257, “Design and synthesis of novel rigid dibenzo[b,f]azepines through ring closure technique as promising anticancer candidates against leukaemia and acting as selective topoisomerase II inhibitors and DNA intercalators” (Journal of Enzyme Inhibition and Medicinal Chemistry, 2023).

Key:
leukaemia SR cells = experiment: Anti-proliferative effect against SR cell line (MTT assay); assay type: cell-based
Experimental: The anti-proliferative effect of the 5e counterpart against the SR cell line was estimated using the MTT assay protocol.
Depending on the previous results, the cytotoxic activity of the designed candidate 5e was then evaluated against leukaemia SR cells. Doxorubicin was also evaluated as a reference drug.

SR cells [1] = experiment: Cell cycle analysis (propidium iodide staining); assay type: cell-based
Experimental: This test was performed using propidium iodide (PI) staining following the detailed procedure in the supporting information (SI 3)[38].
The topoisomerase II inhibitory evaluation, besides the cytotoxicity results of the new compounds, encouraged us to assess the effect of 5e (the most promising candidate) on cell cycle progression in SR cells.
(§1) SI 3. Cell cycle analysis
(§2) Leukemia SR cells were grown in six-well plates (each one contains 2 x 10^5 cells per well) containing 10% fetal bovine serum and incubated for 24 h at 37 °C and 5% CO2. The medium was replaced with (DMSO 1% v/v) containing the 3.1 µM of compound 5e, then incubated for 48 h, collected and washed with cold phosphate buffered saline (PBS). After fixation of the collected cells with ice-cold absolute ethanol (70%), the cells were rinsed with PBS then stained with the DNA fluorochrome PI, kept for 15 min at 37 °C. Then samples were analyzed with a FACS Caliber flow cytometer.
(§3) SI 4. Detection of apoptosis
(§4) Apoptotic activity of compound 5e was evaluated using Annexin V-FITC/PI apoptosis detection kit.
(§5) Leukemia SR cells ([…]) were seeded and incubated with compound 5e for 48 h, trypsinized, collected and washed with phosphate-buffered saline (PBS) several times; SR cells were stained with Annexin V fluorescein isothiocyanate (FITC) and counterstained with propidium iodide (PI) for 15 min at 37 °C in the dark using the apoptosis detection kit (BD Biosciences, San Jose, CA) according to the manufacturer's protocol. Then, Annexin V-FITC and PI binding were analysed by a FACS Caliber flow cytometer.
(§6) SI 5.1. Animals and tumor cell line
(§7) Adult female Swiss albino mice purchased from Theodor Bilharzia Research Institute, Giza, Egypt, with an average body weight of (18-23) g was used. Mice were housed under constant conditions of 12 h light/dark cycle in a […], with free access to standard laboratory mice food and water. […]

[2] = tested on: Solid Ehrlich carcinoma (SEC); experiment: In vivo anti-tumour activity in SEC-bearing mice; design: species or system Swiss albino mice; conditions: 6 mg/Kg B.W., IP
Experimental: (§8) The full methodology of tumour induction, treatments, and blood measurements was carried out according to the described details in the supporting information (SI 5). Moreover, the experimental protocol was approved by the Research Ethics Committee at Suez Canal University (Approval number REC139/2022, Chemistry Department, Faculty of Science, Suez Canal University). […]
as §6
Adult female Swiss albino mice purchased from Theodor Bilharzia Research Institute, Giza, Egypt, with an average body weight of (18-23) g was used. Mice were housed under constant conditions of 12 h light/dark cycle in a […], with free access to standard laboratory mice food and water.
All procedures related to care and maintenance of the animals were performed according to the international guiding principles for animal research and approved by Faculty of Science, Suez Canal University bioethics and animal ethics committee (Approval number REC-01-2022).
Solid Ehrlich carcinoma (SEC) were got from the National Cancer Institute (Cairo University, Egypt). The tumor cell line was proliferated in mice through serial intraperitoneal (I.P.) transplantation of a volume of 0.2 mL physiological saline contains 1 × 10^6 viable cells for 24 h. SEC cells were collected 7 days after I.P. implantation. The harvested cells were diluted with saline to obtain a concentration of 5 × 10^6 viable SEC cells/mL. A volume of 0.2 mL saline contains 1 × 10^6 SEC cells […]
(§9) that were I.P. implanted into each normal mouse. SEC cells (1 × 10^6 tumor cells/mouse) were implanted subcutaneously into the right thigh of the hind limb.
(§10) The experimental animals were randomly divided into four groups. Group 1 served as the normal saline control. Group 2 served as the SEC control (1 × 10^6 cells/mouse). Group 3 served as the compound-treated group (6 mg/kg B.Wt., I.P.). Group 4 received the standard anticancer drug of […]
(§11) survival were recorded daily until the 24th day in both treated and control groups. At the end of experiment, the blood of each group was collected under light anesthesia for estimation of hematological and biochemical assays. The anesthetized animals were then sacrificed for evaluation of the antitumor activity and histopathological examination.
SI 5.2. Antitumor potentiality
It includes tumor volume, weight, and tumor inhibition ration (TIR%). Time interval measurements of tumor volume using digital Vernier caliper (Tricle Brand, Shanghai, China). Measure tumor length and width using clipper and then calculate tumor volume using formulations V = (L x W x W)/2, where V is tumor volume, W is tumor width, L is tumor length. While TIR% was calculated according to the following equation: […]. […]

[3] = Liver enzymes (ALT, AST) in SEC-bearing mice; assay type: in vivo, Swiss albino mice; conditions: 6 mg/Kg B.W., IP
Experimental: as §8, §9, §10
as §11, with “examination. […]” for “examination.”
At the end of the experiment, animals from different groups were sacrificed, and blood samples were collected for determination of liver enzymes ALT, AST levels. Activities of aspartate aminotransferase (AST) and alanine aminotransferase (ALT) were evaluated using commercial kits (ELITech clinical systems, France). […]

[4] = Cytotoxic effect against normal cell line; assay type: cell-based; conditions: human, normal cell line PSC-800-011; read-out: Cytotoxicity IC50, PSC-800-011
Experimental: Following, the cytotoxic effect of compound 5e against a normal cell line, PSC-800–011, was also assigned to evaluate the selectivity of the compound towards the cancer cell lines. […] However, the selectivity index (SI) of compound 5e was also calculated to confirm its selectivity. It was known that any sample that has an SI value higher than 3 will be considered to have high selectivity.

SR cells [5] = experiment: Apoptosis analysis (Annexin-V staining assay); assay type: cell-based
Experimental: The apoptotic analysis was performed according to the detailed description in the supporting information (SI 4)[39].
Annexin-V staining assay was applied to determine the apoptosis induced by compound 5e. […] In detail, 13.61% and 24.33% for the early phase and late phase of apoptosis, respectively, with respect to the control (0.44%, and 0.16%, respectively). Annexin V/PI staining histograms are supported in the supporting information (Figure SI 2).
as §1, §2, §3, §4, §5, §6, §7

O=[N+]([O-])c1ccc(-c2nnc(N3c4ccccc4C=Cc4ccccc43)o2)cc1 [Compound 5e, 2-(5 h-Dibenzo[b,f]azepin-5-yl)-5–(4-nitrophenyl)-1,3,4-oxadiazole]
IC50 (leukaemia SR cells; Homo sapiens, leukaemia SR cells, unit as in head of Table 3, read-out: Cytotoxicity IC50, SR): 13.1 ± 0.62 µM
SI (selectivity index) (leukaemia SR cells; normal cell line PSC-800-011 versus SR): 3.36
Cell cycle arrest phase (SR cells [1]): G1 phase
Cell levels in G1 phase (SR cells [1]; 3.1 µM of compound 5e, 48 h, control 52.84%): 61.29%
S phase % of the examined cells (SR cells [1]; 3.1 µM of compound 5e, 48 h, untreated 34.18%): 36.86%
Tumour inhibition ratio (TIR%) [2]: 62.7%
Solid tumour mass ([2]; SEC control 226 mg): 96.3 mg
Tumour volume ([2]; SEC control 80.6 mm^3): 30.1 mm^3
ALT ([3]; SEC control 65.9 U/L): 39.8 U/L
AST ([3]; SEC control 71 U/L): 35.6 U/L
IC50 [4]: 43.9 ± 2.68 µM
Increase of the apoptosis ratio compared to the untreated cells (SR cells [5]; concentration equivalent to IC50 (13.05 µM), 48 h): 37.34%
Late phase of apoptosis (SR cells [5]; concentration equivalent to IC50, control 0.16%): 24.33%
Early phase of apoptosis (SR cells [5]; concentration equivalent to IC50, control 0.44%): 13.61%
